Assay results reported in ChEMBL document CHEMBL1201862, “PubChem BioAssay data set” (2004).
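Step 1: Grow cells in 96-well plates. Step 2: Expose to compound for 48 hours at 5 concentrations. Step 3: Interpolate endpoints linearly; if unreached, use highest concentration. GI50: concentration for 50% inhibition of growth.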 The source made the active and inactive calls. No stated cut-off is given here; in the data, active = GI50 up to about 1.1 µM and inactive = higher.

Key:
Assay in all cases: DTP human tumour cell line panel, 48 h
A549 = tested on: A549
NCI-H460 = tested on: NCI-H460
ACHN = tested on: ACHN
UACC-62 = tested on: UACC-62
OVCAR-3 = tested on: OVCAR-3
SK-MEL-5 = tested on: SK-MEL-5
SN12C = tested on: SN12C
M14 = tested on: M14
SW-620 = tested on: SW-620
SF-268 = tested on: SF-268
MOLT-4 = tested on: MOLT-4
COLO 205 = tested on: COLO 205
NCI-H23 = tested on: NCI-H23
SK-MEL-2 = tested on: SK-MEL-2
OVCAR-5 = tested on: OVCAR-5
Malme-3M = tested on: Malme-3M
A498 = tested on: A498
RXF 393 = tested on: RXF 393
TK-10 = tested on: TK-10
SK-OV-3 = tested on: SK-OV-3

Measured: GI50

CC(C)NC(=O)OCc1c(COC(=O)NC(C)C)c(-c2ccc[n+](COC(=O)C3CCCCC3)c2)n2c1CCC2
inactive: A549 82 µM | NCI-H460 27.9 µM | ACHN 27.3 µM | UACC-62 24.8 µM | OVCAR-3 > 100 µM | SK-MEL-5 70.8 µM | SN12C 47.6 µM | M14 56 µM | SW-620 57.4 µM | SF-268 42.6 µM | MOLT-4 45.5 µM | COLO 205 93.1 µM | NCI-H23 28.6 µM | SK-MEL-2 44.6 µM | OVCAR-5 78.3 µM | Malme-3M 62.5 µM | A498 29.2 µM | RXF 393 38.9 µM | TK-10 94.6 µM | SK-OV-3 39.1 µM
